Data: patent US20220411362A1, “DITERPENOID COMPOUNDS THAT ACT ON PROTEIN KINASE C (PKC)” (K-Gen, Inc., priority 2019, published 2022)

Experiments:
[1] = tested on: Mino (Lymphoma) cell line; assay: Proliferation of Mino; format: cell-based; details: for IC50: Homo sapiens, MINO, read-out: IC50 in μM Mino (Lymphoma); for ratio of (IC50 of K01)/(IC50 of compound), Mino: value in parenthesis
Protocol: (§1) The diterpenoid compounds were tested in A549, a non-small cell lung cancer cell line harboring a K-Ras activating mutation. Briefly, A549 cells at a density of 1,000 cells/well were seeded in 96-well plates and incubated at 37° C. for 24 hours. A series of different concentrations of compound stocks (500×) were prepared by 3-fold serial dilution in DMSO. These compounds were further diluted in culture media and then added to cells so that the final DMSO concentration was not exceeding 0.25%. After 96 hours of incubation, 50 μL of CellTiter Glo reagent (Promega) was added to each well and luminescence was measured after 10 minutes using EnVision (PerkinElmer). Luminescence from cells treated with DMSO alone was set as Max and % of inhibition was calculated as follows: Inhibition %=(Max−Sample value)/Max×100. Data was analyzed using XL-fit software (ID Business Solutions Ltd.) and IC50, relative IC50, and % of top inhibition was calculated. Some of the compounds in this disclosure were very potent in blocking proliferation of A549 lung cancer cells at low nM range. In addition, potency of inhibiting A549 proliferation correlated well with its binding affinity to PKCs for this series of compounds. In other words, higher affinity binders had stronger inhibitory effects on A549 proliferation. This further support the notion that activation, rather than inhibition, of certain PKC isoforms is required to block proliferation of cancer cells, some of which may harbor K-Ras mutations. This is in sharp contrast to previous literature and common belief that inhibition of PKC is necessary to block cancer cell growth (Kang, 2014, New Journal of Science, 2014:1-36). Data presented here is in agreement with recent findings that many loss-of-function but not gain-of-function mutations of PKC isoforms have been identified in many human cancers (Antal et al., 2015, Cell, 160:489-502).
(§2) The compounds in this disclosure were tested for their potency in blocking proliferation of a few other cancer cells lines, including K-Ras mutant pancreatic cell lines Panc2.13 and KP-4, leukemia cell line HL-60, and lymphoma cell lines Namalwa and Mino. Similar procedures as in Example 67 were followed. Initial cell numbers seeded in 96-well plates were different for different cell lines: 3000 cells/well for Panc2.13; 800-1000 cells/well for KP-4; 5000 cells/well for HL-60; 5000-10000 cells/well for Namalwa and Mino. A ratio ratio of (IC50 of K01)/(IC50 of compound) (data in parenthesis in Table 5) was used to normalize the compound potency from different assay batches to a common comparator […].

[2] = tested on: Namalwa (Lymphoma) cell line; assay: Proliferation of Namalwa; format: cell-based; details: for ratio of (IC50 of K01)/(IC50 of compound), Namalwa: value in parenthesis; for IC50: read-out: IC50 in μM Namalwa (Lymphoma)
Protocol: as §1, §2

[3] = tested on: A549 non-small cell lung cancer cell line; assay: Proliferation of A549 (CellTiter Glo); format: cell-based; details: Homo sapiens, A549, 96 h, read-out: IC50 μM (A549 Cell Line)
Procedure, shortened: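 Luminescent CellTiter Glo read-out after 96 h compound exposure of A549 cells plated at 1,000/well and rested 24 h at 37° C; DMSO kept ≤0.25%, dilutions 3-fold. Inhibition taken relative to DMSO-treated wells; IC50, relative IC50 and top inhibition derived by curve fitting.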

[4] = tested on: KP-4 (Pancreatic) cell line; assay: Proliferation of KP-4; format: cell-based; details: Homo sapiens, KP-4, read-out: IC50 in μM KP-4 (Pancreatic)
Protocol: as §1, §2

[5] = tested on: HL-60 (Leukemia) cell line; assay: Proliferation of HL-60; format: cell-based; details: for ratio of (IC50 of K01)/(IC50 of compound), HL-60: value in parenthesis; for IC50: Homo sapiens, HL-60, read-out: IC50 in μM HL-60 (Leukemia)
Protocol: as §1, §2

[6] = tested on: Panc2.13 (Pancreatic) cell line; assay: Proliferation of Panc2.13; format: cell-based; details: for ratio of (IC50 of K01)/(IC50 of compound), Panc2.13: value in parenthesis; for IC50: read-out: IC50 in μM Panc2.13 (Pancreatic)
Protocol: as §1, §2

[7] = target: T1, C1b domain of human PKD1 (PKCμ) (Homo sapiens, UniProt Q15139); assay: biochemical; format: binding
T1 construct: Genes encoding C1b domains of human PKCα, δ, ε, θ, and PKD1 (PKCμ) were synthesized; made in house; host or cells: E. coli BL21(DE3)
T1 sequence (Q15139 270-320 limits assumed): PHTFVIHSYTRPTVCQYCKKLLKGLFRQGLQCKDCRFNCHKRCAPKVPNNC
Procedure, shortened: (§3)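 GST-C1b (human, E. coli-expressed) + 3H-PDBu + compound; 37° C 10 min shaking, then ice 20 min. Filter capture, scintillation count. IC50 → Ki via Cheng-Prusoff, per-prep measured Kd.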

[8] = target: T2, C1b domain of human PKCε (Homo sapiens, UniProt Q02156); assay: Competitive 3H-PDBu binding to C1b domain of PKCε
T2 construct: Genes encoding C1b domains of human PKCα, δ, ε, θ, and PKD1 (PKCμ) were synthesized; made in house; host or cells: E. coli BL21(DE3)
T2 sequence (Q02156 242-292 limits assumed): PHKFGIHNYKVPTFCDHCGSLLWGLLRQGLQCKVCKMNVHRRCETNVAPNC
Procedure, shortened: as §3

[9] = target: T3, C1b domain of human PKCδ (Homo sapiens, UniProt Q05655); assay: Competitive 3H-PDBu binding to C1b domain of PKCδ; details: Ki PKCδ, 3H-PDBu competition
T3 construct: Genes encoding C1b domains of human PKCα, δ, ε, θ, and PKD1 (PKCμ) were synthesized; made in house; host or cells: E. coli BL21(DE3)
T3 sequence (Q05655 230-280 limits assumed): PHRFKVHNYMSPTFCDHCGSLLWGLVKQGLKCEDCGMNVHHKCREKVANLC
Procedure, shortened: as §3

[10] = tested on: phosphorylation of PKCμ, PKCδ and Erk1/2 in A549 lung cancer cells; format: cell-based; details: 0.3 μM, 30 minutes, Western blot (FIG. 1)
Protocol: Cells were then treated with different drugs at indicated concentrations for 30 minutes. […] Imagequant LAS4000 (GE) was used to scan membranes if secondary antibodies anti-mouse IgG HRP conjugate or anti-rabbit IgG HRP conjugate (dilutions from 1:2000-1:10000) were used. For ProteinSimple Wes system, manufacture's procedure was followed (ProteinSimple 12-230 kDa Wes Separation Module) for sample preparation, loading, running, and data analysis.
Phosphorylation of these sites has been linked to acute activation or catalytic activity of the PKC isoforms and Erk1/2. High level of phosphorylation indicates strong activation.

[11] = target: T4, C1b domain of human PKCα (Homo sapiens, UniProt P17252); assay: biochemical; format: binding; details: Ki PKCα, 3H-PDBu competition
T4 construct: Genes encoding C1b domains of human PKCα, δ, ε, θ, and PKD1 (PKCμ) were synthesized; made in house; host or cells: E. coli BL21(DE3)
Procedure, shortened: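 Competitive binding against 3H-PDBu tracer used recombinant GST-C1b fusion protein expressed in E. coli. Incubation ran 10 min at 37°C with shaking, then 20 min on ice, followed by filtration and scintillation counting of trapped 3H-PDBu. Affinity was derived using each protein preparation's experimentally determined Kd for 3H-PDBu.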

[12] = target: T5, C1b domain of human PKCθ (Homo sapiens, UniProt Q04759); assay: Competitive 3H-PDBu binding to C1b domain of PKCθ
T5 construct: Genes encoding C1b domains of human PKCα, δ, ε, θ, and PKD1 (PKCμ) were synthesized; made in house; host or cells: E. coli BL21(DE3)
T5 sequence (Q04759 231-281 limits assumed): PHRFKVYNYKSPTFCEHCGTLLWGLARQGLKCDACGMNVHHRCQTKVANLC
Procedure, shortened: as §3

[13] = tested on: PANC1 cells; assay: Sphere formation assay (cancer stemness); format: cell-based; details: Homo sapiens, PANC-1, read-out: concentration exhibiting at least 50% inhibition on the sphere forming efficiency
Protocol: A group of diterpenoid compounds of the present disclosure were tested to assess their effects on blocking formation of spheres from cancer cell lines such as PANC1, a K-Ras mutant pancreatic cell line. Briefly, PANC1 cells were harvested, re-suspended as single cell suspensions, counted and seeded into Ultra Low Attachment Culture 96-well plate (Corning, Cat #3474) at 100 cells/well in 100 μl of complete media (with 10% FBS) containing 2% Matrigel (Corning, Cat #354234) and DMSO or compounds. Six replicates per condition were seeded. The seeded cells were placed in the 37° C. tissue culture incubator. 10 μl of low serum containing media (with 0.1% FBS) was added to each well every week. Spheres formed after 3-4 weeks were counted. Sphere forming efficiency was expressed as percentage of # of spheres/# of cells seeded.

Compound | IC50 [1] | ratio of (IC50 of K01)/(IC50 of compound), Mino [1] | ratio of (IC50 of K01)/(IC50 of compound), Namalwa [2] | IC50 [2] | IC50 [3] | IC50 [4] | ratio of (IC50 of K01)/(IC50 of compound), HL-60 [5] | IC50 [5] | ratio of (IC50 of K01)/(IC50 of compound), Panc2.13 [6] | IC50 [6] | Ki [7] | Ki [8] | Ki [9] | phosphorylation of PKC (PKD/PKCμ), PKCδ and Erk1/2 [10] | Ki [11] | Ki [12] | IC50 [13]
CC1=C[C@H]2[C@@]3(O)[C@H](C)C[C@]4(OC(=O)[C@@H](N)C5Cc6ccccc6C5)[C@H]([C@@H]3C=C(CO)C[C@]2(O)C1=O)C4(C)C [Compound K101-C1329] | 0.01 to 0.03 µM | 5.5 | 1.6 | 0.03 to 0.06 µM | 0.06 to 0.1 µM | 0.06 to 0.1 µM | 1.79 | 0.03 to 0.06 µM | 5.82 | 0.1 to 0.2 µM | < 0.005 µM | 0.001 to 0.03 µM | < 0.005 µM | induced high levels of phosphorylation | 0.03 to 0.06 µM | 0.005 to 0.01 µM | ≤ 0.15 µM
CC1=C[C@H]2[C@@]3(O)[C@H](C)C[C@]4(OC(=O)[C@@H](N)CCC5CCCCC5)[C@H]([C@@H]3C=C(CO)C[C@]2(O)C1=O)C4(C)C [Compound K101-C1345] | 0.001 to 0.01 µM | 33 | 7.42 | 0.001 to 0.01 µM | 0.01 to 0.03 µM | 0.01 to 0.03 µM | 27.7 | 0.01 to 0.03 µM | 20.5 | 0.03 to 0.06 µM | < 0.005 µM | 0.001 to 0.03 µM | < 0.005 µM |  | 0.03 to 0.06 µM | 0.001 to 0.03 µM | ≤ 0.15 µM
CC1=C[C@H]2[C@@]3(O)[C@H](C)C[C@]4(OC(=O)[C@@H](N)C(C)(C)C)[C@H]([C@@H]3C=C(CO)C[C@]2(O)C1=O)C4(C)C [Compound K101-C1346] |  |  |  |  | 0.2 to 0.6 µM |  |  |  |  |  | 0.005 to 0.01 µM |  | 0.001 to 0.03 µM |  | 0.2 to 0.4 µM | 0.03 to 0.06 µM | ≤ 1.5 µM
